Read-outs that look alike come from different tables or passages of the source.
Tests used:
MX-1 (breast carcinoma) = assay: Cytotoxicity/growth inhibition assay, MX-1; assay type: cell-based, human; conditions: read-out: IC50 (MX-1)
Text: (§1) The human cancer cell lines DLD-1 (colorectal adenocarcinoma), LNCap (prostate carcinoma), and OVCAR-3 (ovarian carcinoma) were obtained from the American Type Culture Collection, Manassas, Va., U.S.A., and HL-60 (promyeloid myelocytic leukemia), MX-1 (breast carcinoma), P388, and P388ADR from the National Cancer Institute, Bethesda, Md., U.S.A. Carboplatin, doxorubicin, and melphalan were obtained from Sigma-Aldrich Chemical Company, St. Louis, Mo., U.S.A. The CellTiter-Glo assay kit was obtained from Promega Corporation, Madison, Wis., U.S.A., and the Cellular DNA Cytometric Analysis Reagent Kit from Roche Diagnostics Corporation, Indianapolis, Ind., U.S.A. Lambda DNA was obtained from New England Biolabs, Beverly, Mass., U.S.A., and SYBR-Gold from Molecular Probes, Inc., Eugene, Oreg., U.S.A. The DNeasy Tissue Kit was obtained from Qiagen Inc., Valencia, Calif., U.S.A., and AmpliTaq Gold DNA polymerase and PCR reagents from Applied Biosystems, Foster City, Calif., U.S.A. All products were used in accordance with manufacturer's directions. All assays were conducted in triplicate wells, with dimethyl sulfoxide (DMSO) solvent control. The extent of cell growth was expressed as a percentage of the signal from the solvent control wells.
(§2) Log-phase cells were trypsinized, collected by centrifugation, and resuspended in a small volume of fresh medium, and the density of viable cells was determined following Trypan Blue staining. Cells were diluted in fresh media (3×10^3 cells/mL for MX-1, 3×10^3 cells/mL for DLD-1, and 6×10^3 cells/mL for LNCap cells), the test compounds (concentrations between 0.1 and 200 μM, dissolved in DMSO, 50 μL) added immediately after dilution to achieve a final DMSO concentration of 0.5%, then the suspensions added at 150 μL/well to 96-well plates, and incubated for several hours to allow attachment in the case of adherent cells. The cells were cultured for approximately three doubling times (3 days for MX-1 and 4 days for DLD-1 and LNCap). The cells were then collected by centrifugation, and 100 μL of the culture supernatant was replaced by the CellTiter-Glo reagent. After incubation for 15 minutes at room temperature, and the plate was read with a luminometer.

[1] = test system: DLD-1 (colorectal adenocarcinoma); assay: Cytotoxicity/growth inhibition assay, DLD-1; assay type: cell-based, human; conditions: read-out: IC50 (DLD-1)
Text: as §1, §2

[2] = MX-1 cells, 3 days culture, CellTiter-Glo, 0.1-200 μM tested
[3] = DLD-1 cells, 4 days culture, CellTiter-Glo, 0.1-200 μM tested

Compound | IC50 (MX-1 (breast carcinoma); [2]) [µM] | IC50 [1, 3] [µM] | IC50 (MX-1 (breast carcinoma); Homo sapiens, MX1, 72 h) [µM] | IC50 ([1]; Homo sapiens, DLD-1, 96 h) [µM]
O=C(CS(=O)(=O)CCOP(=O)(N(CCCl)CCCl)N(CCCl)CCCl)NCCO [Compound 49A] | 29 | 11.6 | – | –
CCNC(=O)CS(=O)(=O)CCOP(=O)(N(CCCl)CCCl)N(CCCl)CCCl [Compound 50A] | 17.1 | 11.9 | – | –
O=C(CS(=O)(=O)CCOP(=O)(N(CCCl)CCCl)N(CCCl)CCCl)N1CCOCC1 [Compound 51A] | 6.9 | 6.7 | – | –
O=C(CS(=O)(=O)CCOP(=O)(N(CCCl)CCCl)N(CCCl)CCCl)N1CCC(O)CC1 [Compound 52A] | 15.6 | 10.2 | – | –
CNC(=O)CCS(=O)(=O)CCOP(=O)(N(CCCl)CCCl)N(CCCl)CCCl [Compound 53A] | 11.3 | 8.4 | – | –
CCNC(=O)CCS(=O)(=O)CCOP(=O)(N(CCCl)CCCl)N(CCCl)CCCl [Compound 54A] | 9.3 | 7.4 | – | –
O=C(CCS(=O)(=O)CCOP(=O)(N(CCCl)CCCl)N(CCCl)CCCl)NC1CC1 [Compound 55A] | 14.7 | 10.1 | – | –
O=C(CCS(=O)(=O)CCOP(=O)(N(CCCl)CCCl)N(CCCl)CCCl)NCCO [Compound 56A] | 19.3 | 8.2 | – | –
COCCNC(=O)CCS(=O)(=O)CCOP(=O)(N(CCCl)CCCl)N(CCCl)CCCl [Compound 57A] | 18 | 10.1 | – | –
O=C(CCS(=O)(=O)CCOP(=O)(N(CCCl)CCCl)N(CCCl)CCCl)N1CCOCC1 [Compound 58A] | 17 | 12.9 | – | –
O=C(CCS(=O)(=O)CCOP(=O)(N(CCCl)CCCl)N(CCCl)CCCl)N1CCC(O)CC1 [Compound 59A] | 25.4 | 15.1 | – | –
O=C(CS(=O)(=O)CCOP(=O)(N(CCCl)CCCl)N(CCCl)CCCl)NC1CC1 [Compound 60A] | 11.3 | 7.4 | – | –
NC(=O)C(CC(=O)O)NC(=O)CS(=O)(=O)CCOP(=O)(N(CCCl)CCCl)N(CCCl)CCCl (stereo not shown) [Compound 61A] | 30.9 | 20 | – | –
O=C(O)[C@@H]1CCCN1C(=O)CS(=O)(=O)CCOP(=O)(N(CCCl)CCCl)N(CCCl)CCCl [Compound 62A] | 15 | 16.5 | – | –
CC(C)C(NC(=O)CS(=O)(=O)CCOP(=O)(N(CCCl)CCCl)N(CCCl)CCCl)C(=O)O (stereo not shown) [Compound 63A] | 10 | 17.2 | – | –
CC(NC(=O)CS(=O)(=O)CCOP(=O)(N(CCCl)CCCl)N(CCCl)CCCl)C(=O)O (stereo not shown) [Compound 64A] | 37.3 | 22 | – | –
NC(=O)CC(NC(=O)CS(=O)(=O)CCOP(=O)(N(CCCl)CCCl)N(CCCl)CCCl)C(=O)O (stereo not shown) [Compound 65A] | 31.8 | 21.4 | – | –
CS(=O)(=O)CCC(NC(=O)CS(=O)(=O)CCOP(=O)(N(CCCl)CCCl)N(CCCl)CCCl)C(=O)O (stereo not shown) [Compound 66A] | 29.1 | 18.8 | – | –
O=C(CS(=O)(=O)CCOP(=O)(N(CCCl)CCCl)N(CCCl)CCCl)N1CCNCC1 [Compound 68A] | 36.7 | 18 | – | –
O=C(CS(=O)(=O)CCOP(=O)(N(CCCl)CCCl)N(CCCl)CCCl)N1CCN(CCO)CC1 [Compound 69A] | 34.6 | 14.1 | – | –
COC(=O)[C@H](CS(=O)(=O)CCOP(=O)(N(CCCl)CCCl)N(CCCl)CCCl)NS(C)(=O)=O [Compound 79A, N-(Methanesulfonyl)-3-[[2-[[bis[bis(2-chloroethyl)amino]phosphinyl]oxy]ethyl]sulfonyl]-L-alanine methyl ester] | – | – | 88 | 26.6
O=C(Nc1cccc(CS(=O)(=O)CCOP(=O)(N(CCCl)CCCl)N(CCCl)CCCl)c1)C1CCCNC1 (stereo not shown) [Compound 148A] | ≥ 200 | ≥ 200 | – | –
CN(C)CCNC(=O)c1ccc(CS(=O)(=O)CCOP(=O)(N(CCCl)CCCl)N(CCCl)CCCl)cc1 [Compound 173A] | 104 | 37.9 | – | –

Source: US8093231B2, “Sulfonylethyl phosphorodiamidates” (Telik, Inc., priority 2004, dated 2012)
